Laboratory results taken from the supplement of paper PMC10307832.

Columns and labels:
Assay in all cases: relative viability (nuclei count vs DMSO), 5 days (fraction); higher = more cells survive
IMD-0354 + Pemetrexed = compound: O=C(Nc1cc(C(F)(F)F)cc(C(F)(F)F)c1)c1cc(Cl)ccc1O [IMD-0354] + Nc1nc2[nH]cc(CCc3ccc(C(=O)N[C@@H](CCC(=O)O)C(=O)O)cc3)c2c(=O)[nH]1 [Pemetrexed] (partner 0.2 µM)
In short: (§1)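 A single step with final 0.05% Triton X-100, 1% formaldehyde and 1 ug/ml Hoechst fixed the cells and stained nuclei 5 days after treatment. Lung cancer cell lines in 1536-well plates had been treated by pin tool the day after seeding with one drug alone or a fixed anchor-drug dose plus five library-drug doses (not always all listed) in √10 steps, and nuclei were counted on 4× images. Relative viability is the ratio of nuclei in treated wells to nuclei in vehicle wells, taken as the median of duplicate plates.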

CX-5461 + OSI-027 = compound: Cc1cnc(CNC(=O)c2c(=O)c3ccc(N4CCCN(C)CC4)nc3n3c2sc2ccccc23)cn1 [CX-5461] + COc1cccc2cc(-c3nc([C@H]4CC[C@H](C(=O)O)CC4)n4ncnc(N)c34)[nH]c12 [OSI-027] (partner 0.5 µM)
In short: as §1

IMD-0354 = compound: O=C(Nc1cc(C(F)(F)F)cc(C(F)(F)F)c1)c1cc(Cl)ccc1O [IMD-0354]
In short: (§2)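 On vehicle-anchored 1536-well plates, lung cancer cell lines held overnight at 37 °C were pinned with five library-drug doses (not always all listed) spaced by √10. With no medium change over 5 days, they were then fixed, permeabilised and Hoechst-stained in one step and imaged at 4×. MetaXpress counted nuclei, and viability is the median across plates of treated-well over vehicle-well nuclei. Acceptance needed control CV below 25% and at least one doubling.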

CX-5461 = compound: Cc1cnc(CNC(=O)c2c(=O)c3ccc(N4CCCN(C)CC4)nc3n3c2sc2ccccc23)cn1 [CX-5461]
In short: as §2

| Cell Line | relative viability (IMD-0354 + Pemetrexed; first compound 0.04 µM) | relative viability (IMD-0354 + Pemetrexed; first compound 0.1265 µM) | relative viability (IMD-0354 + Pemetrexed; first compound 0.4 µM) | relative viability (IMD-0354 + Pemetrexed; first compound 1.265 µM) | relative viability (IMD-0354 + Pemetrexed; first compound 4 µM) | relative viability (CX-5461 + OSI-027; first compound 0.01 µM) | relative viability (CX-5461 + OSI-027; first compound 0.03162 µM) | relative viability (CX-5461 + OSI-027; first compound 0.1 µM) | relative viability (CX-5461 + OSI-027; first compound 0.3162 µM) | relative viability (CX-5461 + OSI-027; first compound 1 µM) | relative viability (IMD-0354; 0.04 µM) | relative viability (IMD-0354; 0.1265 µM) | relative viability (IMD-0354; 0.4 µM) | relative viability (IMD-0354; 1.265 µM) | relative viability (IMD-0354; 4 µM) | relative viability (CX-5461; 0.01 µM) | relative viability (CX-5461; 0.03162 µM) | relative viability (CX-5461; 0.1 µM) | relative viability (CX-5461; 0.3162 µM) | relative viability (CX-5461; 1 µM) |
| --- | --- | --- | --- | --- | --- | --- | --- | --- | --- | --- | --- | --- | --- | --- | --- | --- | --- | --- | --- | --- |
| PC-3 [JPC-3] | 1.42 | 1 | 1.03 | 0.305 | 0.405 | 0.828 | 0.811 | 0.773 | 0.668 | 0.707 | 1.06 | 1.03 | 0.829 | 0.341 | 0.306 | 1.03 | 1.05 | 1.11 | 1.01 | 0.974 |
| PC-14 | 0.128 | 0.116 | 0.105 | 0.14 | 0.0524 | 0.927 | 1.01 | 0.85 | 0.729 | 0.236 | 1.18 | 1.05 | 0.52 | 0.317 | 0.129 | 1.08 | 1.04 | 0.956 | 1.01 | 0.599 |
| RERF-LC-KJ | 0.536 | 0.462 | 0.376 | 0.126 | 0.153 | 0.56 | 0.628 | 0.572 | 0.528 | 0.434 | 1.09 | 0.992 | 0.635 | 0.384 | 0.234 | 0.96 | 1.05 | 0.943 | 0.946 | 0.879 |
| SK-LU-1 | 1.11 | 0.777 | 0.44 | 0.225 | 0.249 | 0.347 | 0.321 | 0.386 |  | 0.203 | 1.16 | 0.97 | 0.581 | 0.488 | 0.277 | 1.08 | 1.07 | 1.04 | 1.07 | 0.736 |
| SK-MES-1 | 1.16 | 1.06 | 0.466 | 0.349 | 0.187 | 0.586 | 0.57 | 0.582 | 0.607 | 0.372 | 1.16 | 0.996 | 0.645 | 0.463 | 0.223 | 1.1 | 1.09 | 1.04 | 1.06 | 0.724 |
| SW 900 | 0.544 | 0.519 | 0.329 | 0.182 | 0.196 | 0.423 | 0.601 | 0.488 | 0.386 | 0.271 | 0.987 | 0.889 | 0.509 | 0.239 | 0.243 | 0.918 | 1.11 | 0.586 | 0.877 | 0.401 |
| SW 1573 | 0.872 | 0.799 | 0.271 | 0.131 | 0.0794 | 0.61 | 0.621 | 0.401 | 0.477 | 0.179 | 1.15 | 0.916 | 0.548 | 0.22 | 0.13 | 0.94 | 0.978 | 0.689 | 0.656 | 0.33 |
